Publication PMC13101830 (Pharmaceutical research, 2023)
Where a SMILES comes first, the peptide text is derived from it.

Tested on: BBB-mimicking system with the co-culture of bEnd.3 and astrocytes
Assay: In vitro BBB permeability assay in BBB-mimicking co-culture model
Assay type: in vitro ADME, mouse
Settings: 10 μg/ml in top chamber, 30-120 min, 37°C

N[C@@H](Cc1cnc[nH]1)C(=O)N[C@@H](Cc1ccc(O)cc1)C(=O)O [His-Tyr] (H-His-Tyr-OH)
permeability coefficient (Pe), apical to basolateral (A > B): 0.12 ± 0.02 × 10^−5 cm^2/second
